This assay has as its system Lewis lung carcinoma i.m., BDF1 mice, T/C %. In words: NCI In Vivo Anticancer Drug Screen. Data for tumor model Lewis Lung Carcinoma (intramuscular) in B6D2F1 (BDF1) mice. The procedure, abridged:
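Compound given to mice with transplantable tumours; survival or tumour size compared against the vehicle control group, reported as T divided by C.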

The mark [1] stands for this setting: endpoint: median survival time, dose: 0.25 mg/kg/injection, schedule: Q01DX011 (ip), vehicle: saline, higher = longer survival.
Setting [2] is: endpoint: mean tumor weight, dose: 6.25 mg/kg/injection, schedule: Q01DX011 (ip), vehicle: other, higher = larger tumour.
[3] abbreviates: endpoint: median survival time, dose: 6.25 mg/kg/injection, schedule: Q01DX011 (ip), vehicle: other, higher = longer survival.
Where [4] appears, read: endpoint: median survival time, dose: 12.5 mg/kg/injection, schedule: Q01DX011 (ip), vehicle: other, higher = longer survival.
Where [5] appears, read: endpoint: median survival time, dose: 25.0 mg/kg/injection, schedule: Q01DX011 (ip), vehicle: other, higher = longer survival.

“And” between values parts separate entries of the source, which are not always exact repeats. Identical values can stand only once. Inconclusive results are not listed.

For the compound `CCCCCCC(=O)O[C@H]1CC[C@H]2[C@@H]3CCC4=CC(=O)CC[C@]4(C)[C@H]3CC[C@]12C`, the T/C is, setting by setting: (endpoint: median survival time, dose: 20.0 mg/kg/injection, schedule: Q01DX009 (ip), vehicle: Klucel (hydroxypropylcellulose) (HPC), higher = longer survival) 94 % of control; (endpoint: median survival time, dose: 40.0 mg/kg/injection, schedule: Q01DX009 (ip), vehicle: Klucel (hydroxypropylcellulose) (HPC), higher = longer survival) 90 % of control; (endpoint: median survival time, dose: 80.0 mg/kg/injection, schedule: Q01DX009 (ip), vehicle: Klucel (hydroxypropylcellulose) (HPC), higher = longer survival) 91 % of control; (endpoint: median survival time, dose: 160.0 mg/kg/injection, schedule: Q01DX009 (ip), vehicle: Klucel (hydroxypropylcellulose) (HPC), higher = longer survival) 110 % of control.

For `C[C@]12CC[C@H](OC3OC(CO)C(O)C(O)C3O)C[C@H]1CC[C@@H]1[C@@H]2CC[C@]2(C)[C@@H](C3=CCOC3=O)CC[C@]12O` (some centres not stated), the T/C under setting [1] was 110 % of control.

As to `CCCCn1cnc2c(=S)nc[nH]c21`, the T/C runs as follows: (endpoint: mean tumor weight, dose: 1.56 mg/kg/injection, schedule: Q01DX011 (ip), vehicle: other, higher = larger tumour) 89 % of control; under setting [2], 85 % of control; (endpoint: median survival time, dose: 1.56 mg/kg/injection, schedule: Q01DX011 (ip), vehicle: other, higher = longer survival) 94 % of control and 104 % of control; (endpoint: median survival time, dose: 3.12 mg/kg/injection, schedule: Q01DX011 (ip), vehicle: other, higher = longer survival) 100 % of control; under setting [3], 97 % of control and 108 % of control; under setting [4], 110 % of control. Besides, under setting [5], the T/C was 116 % of control.

For the compound `S=c1nc[nH]c2nc[nH]c12`, the T/C is, setting by setting: (endpoint: mean tumor weight, dose: 10.0 mg/kg/injection, schedule: Q01DX011 (ip), vehicle: other, higher = larger tumour) 77 % of control; (endpoint: mean tumor weight, dose: 20.0 mg/kg/injection, schedule: Q01DX011 (ip), vehicle: other, higher = larger tumour) 77 % of control; (endpoint: mean tumor weight, dose: 40.0 mg/kg/injection, schedule: Q01DX011 (ip), vehicle: other, higher = larger tumour) 89 % of control; (endpoint: mean tumor weight, dose: 65.0 mg/kg/injection, schedule: Q01DX011 (ip), vehicle: other, higher = larger tumour) 58 % of control; (endpoint: median survival time, dose: 4.0 mg/kg/injection, schedule: Q01DX011 (ip), vehicle: other, higher = longer survival) 91 % of control and 108 % of control; (endpoint: median survival time, dose: 8.0 mg/kg/injection, schedule: Q01DX011 (ip), vehicle: other, higher = longer survival) 91 % of control and 111 % of control. The T/C by setting is: (endpoint: median survival time, dose: 10.0 mg/kg/injection, schedule: Q01DX011 (ip), vehicle: other, higher = longer survival) 110 % of control; (endpoint: median survival time, dose: 16.0 mg/kg/injection, schedule: Q01DX011 (ip), vehicle: other, higher = longer survival) 93 % of control; (endpoint: median survival time, dose: 20.0 mg/kg/injection, schedule: Q01DX011 (ip), vehicle: other, higher = longer survival) 112 % of control; (endpoint: median survival time, dose: 32.0 mg/kg/injection, schedule: Q01DX011 (ip), vehicle: other, higher = longer survival) 98 % of control.

`COC(=O)C[C@](O)(CCCC(C)(C)O)C(=O)O[C@@H]1C(OC)=C[C@]23CCCN2CCc2cc4c(cc2[C@H]13)OCO4`: the T/C reads like this: (endpoint: mean tumor weight (est.), dose: 0.25 mg/kg/injection, schedule: Q01DX011 (ip), vehicle: saline, higher = larger tumour) 60 % of control; (endpoint: mean tumor weight (est.), dose: 0.5 mg/kg/injection, schedule: Q01DX011 (ip), vehicle: saline, higher = larger tumour) 57 % of control; under setting [1], 93 % of control.

Consider `CCN1/C(=C/C=C/c2oc3ccccc3[n+]2CC)Oc2ccccc21`, for which the T/C is, setting by setting: (endpoint: mean tumor weight (est.), dose: 3.7 micrograms/kg/injection, schedule: Q01DX011 (ip), vehicle: saline, higher = larger tumour) 87 % of control; (endpoint: mean tumor weight (est.), dose: 75.0 micrograms/kg/injection, schedule: Q01DX011 (ip), vehicle: saline, higher = larger tumour) 99 % of control; (endpoint: mean tumor weight (est.), dose: 150.0 micrograms/kg/injection, schedule: Q01DX011 (ip), vehicle: saline, higher = larger tumour) 103 % of control; (endpoint: mean tumor weight (est.), dose: 300.0 micrograms/kg/injection, schedule: Q01DX011 (ip), vehicle: saline, higher = larger tumour) 86 % of control; (endpoint: median survival time, dose: 37.5 micrograms/kg/injection, schedule: Q01DX011 (ip), vehicle: saline, higher = longer survival) 93 % of control; (endpoint: median survival time, dose: 300.0 micrograms/kg/injection, schedule: Q01DX011 (ip), vehicle: saline, higher = longer survival) 87 % of control.

For `Nc1nc2c(c(=O)[nH]1)NC(CCNc1ccc(C(=O)NC(CCC(=O)O)C(=O)O)cc1)CN2` (configuration not stated), the T/C runs as follows: (endpoint: mean tumor weight (est.), dose: 3.13 mg/kg/injection, schedule: Q01DX011 (ip), vehicle: other, higher = larger tumour) 112 % of control; (endpoint: mean tumor weight (est.), dose: 6.25 mg/kg/injection, schedule: Q01DX011 (ip), vehicle: other, higher = larger tumour) 81 % of control; (endpoint: mean tumor weight (est.), dose: 12.5 mg/kg/injection, schedule: Q01DX011 (ip), vehicle: other, higher = larger tumour) 104 % of control; (endpoint: mean tumor weight (est.), dose: 25.0 mg/kg/injection, schedule: Q01DX011 (ip), vehicle: other, higher = larger tumour) 99 % of control; (endpoint: mean tumor weight (est.), dose: 50.0 mg/kg/injection, schedule: Q01DX011 (ip), vehicle: other, higher = larger tumour) 68 % of control; (endpoint: mean tumor weight (est.), dose: 100.0 mg/kg/injection, schedule: Q01DX011 (ip), vehicle: other, higher = larger tumour) 63 % of control. Besides, the T/C was 100 % of control under setting [2]; 101 % of control (endpoint: mean tumor weight, dose: 25.0 mg/kg/injection, schedule: Q01DX011 (ip), vehicle: other, higher = larger tumour); 78 % of control (endpoint: mean tumor weight, dose: 50.0 mg/kg/injection, schedule: Q01DX011 (ip), vehicle: other, higher = larger tumour); 68 % of control (endpoint: mean tumor weight, dose: 100.0 mg/kg/injection, schedule: Q01DX011 (ip), vehicle: other, higher = larger tumour); 94 % of control under setting [3]; 103 % of control under setting [4]. In addition, the T/C reads like this: under setting [5], 98 % of control; (endpoint: median survival time, dose: 100.0 mg/kg/injection, schedule: Q01DX011 (ip), vehicle: other, higher = longer survival) 108 % of control.

Consider `CS(=O)(=O)OCC(O)C(O)COS(C)(=O)=O` (configuration not stated), for which the T/C (endpoint: median survival time, dose: 100.0 mg/kg/injection, schedule: Q01DX011 (ip), vehicle: saline, higher = longer survival) is 100 % of control and the T/C (endpoint: median survival time, dose: 400.0 mg/kg/injection, schedule: Q01DX011 (ip), vehicle: saline, higher = longer survival) was 100 % of control.

With `O=C(O)CCCc1ccc(N(CCCl)CCCl)cc1`, the T/C reads like this: (endpoint: mean tumor weight, dose: 2.5 mg/kg/injection, schedule: Q01DX011 (ip), vehicle: carboxymethylcellulose (CMC), higher = larger tumour) 92 % of control; (endpoint: mean tumor weight, dose: 5.0 mg/kg/injection, schedule: Q01DX011 (ip), vehicle: carboxymethylcellulose (CMC), higher = larger tumour) 56 % of control; (endpoint: mean tumor weight, dose: 10.0 mg/kg/injection, schedule: Q01DX011 (ip), vehicle: carboxymethylcellulose (CMC), higher = larger tumour) 56 % of control; (endpoint: median survival time, dose: 0.5 mg/kg/injection, schedule: Q01DX011 (ip), vehicle: saline, higher = longer survival) 98 % of control and 101 % of control; (endpoint: median survival time, dose: 1.0 mg/kg/injection, schedule: Q01DX011 (ip), vehicle: saline, higher = longer survival) 91 % of control and 92 % of control; (endpoint: median survival time, dose: 2.0 mg/kg/injection, schedule: Q01DX011 (ip), vehicle: saline, higher = longer survival) 92 % of control and 110 % of control. The T/C by setting is: (endpoint: median survival time, dose: 2.5 mg/kg/injection, schedule: Q01DX011 (ip), vehicle: carboxymethylcellulose (CMC), higher = longer survival) 95 % of control; (endpoint: median survival time, dose: 4.0 mg/kg/injection, schedule: Q01DX011 (ip), vehicle: saline, higher = longer survival) 97 % of control and 118 % of control; (endpoint: median survival time, dose: 5.0 mg/kg/injection, schedule: Q01DX011 (ip), vehicle: carboxymethylcellulose (CMC), higher = longer survival) 122 % of control; (endpoint: median survival time, dose: 8.0 mg/kg/injection, schedule: Q01DX011 (ip), vehicle: saline, higher = longer survival) 88 % of control and 105 % of control; (endpoint: median survival time, dose: 10.0 mg/kg/injection, schedule: Q01DX011 (ip), vehicle: carboxymethylcellulose (CMC), higher = longer survival) 108 % of control.

For the compound `CN(Cc1ccccc1)/N=N/c1nc[nH]c1C(N)=O`, the T/C (endpoint: mean tumor weight, dose: 50.0 mg/kg/injection, schedule: Q01DX011 (ip), vehicle: saline, higher = larger tumour) is 64 % of control and the T/C (endpoint: median survival time, dose: 50.0 mg/kg/injection, schedule: Q01DX011 (ip), vehicle: saline, higher = longer survival) was 91 % of control.

For `Nc1nncs1`, the T/C is 87 % of control (endpoint: mean tumor weight, dose: 6.25 mg/kg/injection, schedule: Q01DX011 (ip), vehicle: water, higher = larger tumour); 80 % of control (endpoint: mean tumor weight, dose: 12.5 mg/kg/injection, schedule: Q01DX011 (ip), vehicle: water, higher = larger tumour); 74 % of control (endpoint: mean tumor weight, dose: 25.0 mg/kg/injection, schedule: Q01DX011 (ip), vehicle: water, higher = larger tumour); 36 % of control (endpoint: mean tumor weight, dose: 50.0 mg/kg/injection, schedule: Q01DX011 (ip), vehicle: water, higher = larger tumour); 121 % of control (endpoint: median survival time, dose: 6.25 mg/kg/injection, schedule: Q01DX011 (ip), vehicle: water, higher = longer survival); 123 % of control (endpoint: median survival time, dose: 25.0 mg/kg/injection, schedule: Q01DX011 (ip), vehicle: water, higher = longer survival).

As to `CN(N=O)C(N)=O`, the T/C is 98 % of control (endpoint: median survival time, dose: 3.12 mg/kg/injection, schedule: Q01DX015 (ip), vehicle: saline, higher = longer survival); 103 % of control (endpoint: median survival time, dose: 6.25 mg/kg/injection, schedule: Q01DX015 (ip), vehicle: saline, higher = longer survival); 94 % of control (endpoint: median survival time, dose: 6.25 mg/kg/injection, schedule: Q07DX003 (ip), vehicle: saline, higher = longer survival); 115 % of control (endpoint: median survival time, dose: 12.5 mg/kg/injection, schedule: Q01DX015 (ip), vehicle: saline, higher = longer survival); 93 % of control (endpoint: median survival time, dose: 12.5 mg/kg/injection, schedule: Q07DX003 (ip), vehicle: saline, higher = longer survival); 86 % of control (endpoint: median survival time, dose: 25.0 mg/kg/injection, schedule: Q07DX003 (ip), vehicle: saline, higher = longer survival).

These data come from PubChem BioAssay AID272 (DTP/NCI, 2004).
